Experimental data taken from patent US10994006B2, “Desensitizing mast cells by co-presentation of antigens with high affinity mast cell siglec ligands” (The Scripps Research Institute, priority 2016, dated 2021).
pIC50: −log10 of the molar value. Entries after “also recorded” stand apart in the source; their conditions may differ.

What was measured:
HL-60 cells = assay: HL-60 cell binding to arrayed compound; parameters: species or system human; conditions: AML cell line expressing intermediate levels of hCD33
Text: This increase in avidity was further supported by the fact that HL-60 cells, an AML cell line expressing intermediate levels of hCD33, bound to compound 22.

hCD33 [1] = target: T1, hCD33 (Homo sapiens, UniProt P20138); assay: glycan microarray binding of hCD33-Fc; parameters: made in house
Target sequence in this assay (P20138 18-259 limits assumed): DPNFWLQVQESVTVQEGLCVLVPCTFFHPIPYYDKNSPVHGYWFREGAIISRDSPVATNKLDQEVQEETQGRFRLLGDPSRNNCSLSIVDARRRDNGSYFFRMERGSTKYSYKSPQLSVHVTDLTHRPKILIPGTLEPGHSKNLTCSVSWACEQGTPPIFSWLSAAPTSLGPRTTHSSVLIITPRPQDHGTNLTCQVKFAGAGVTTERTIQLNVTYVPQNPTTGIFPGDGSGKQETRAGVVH

hCD33 [2] = target: T1, hCD33; assay: solution-phase inhibition assay, flow cytometry: binding of fluorescently labelled hCD33 to ligand-coated beads
Method: Glycan microarrays may provide only qualitative measures of avidity and selectivity. Therefore, the relative affinities of these compounds were analyzed using solution-phase inhibition assays where IC50 values were determined using a flow cytometry assay. The flow cytometry assay evaluated whether the compounds were able to prevent the binding of fluorescently labelled hCD33 to ligand-coated beads, and these values were used to determine the relative inhibitory potency (rIP) for each compound compared to the native sialoside (rIP=1).
Target sequence in this assay (P20138 18-364): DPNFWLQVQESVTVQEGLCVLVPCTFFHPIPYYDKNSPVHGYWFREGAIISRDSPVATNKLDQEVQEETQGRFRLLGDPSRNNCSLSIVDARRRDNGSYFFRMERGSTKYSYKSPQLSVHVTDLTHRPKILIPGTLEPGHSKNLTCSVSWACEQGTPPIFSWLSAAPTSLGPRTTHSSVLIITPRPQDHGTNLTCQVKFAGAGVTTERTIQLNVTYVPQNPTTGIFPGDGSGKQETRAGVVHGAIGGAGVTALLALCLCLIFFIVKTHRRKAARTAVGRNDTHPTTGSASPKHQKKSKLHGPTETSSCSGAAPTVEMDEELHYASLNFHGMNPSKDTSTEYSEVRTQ

Siglec-8 = Siglec-8 (Homo sapiens, UniProt Q9NYZ4); conditions: Bochner et al. 2005; Floyd et al. 2000; cited from earlier work
Siglec-8, sequence (Q9NYZ4 17-499): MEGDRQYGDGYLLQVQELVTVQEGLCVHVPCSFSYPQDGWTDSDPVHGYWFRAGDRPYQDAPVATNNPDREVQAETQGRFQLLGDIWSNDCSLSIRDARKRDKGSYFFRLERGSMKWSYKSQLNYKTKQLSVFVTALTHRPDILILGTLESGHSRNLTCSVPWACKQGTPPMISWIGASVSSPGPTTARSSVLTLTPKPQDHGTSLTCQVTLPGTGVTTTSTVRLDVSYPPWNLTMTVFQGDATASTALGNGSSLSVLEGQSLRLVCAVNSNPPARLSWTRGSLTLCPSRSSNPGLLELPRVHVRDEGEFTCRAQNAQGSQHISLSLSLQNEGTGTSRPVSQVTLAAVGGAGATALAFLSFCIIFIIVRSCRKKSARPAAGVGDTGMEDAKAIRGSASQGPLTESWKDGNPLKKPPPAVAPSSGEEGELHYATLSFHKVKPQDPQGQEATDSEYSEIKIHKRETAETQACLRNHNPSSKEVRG

Compound | binding of HL-60 cells to compound (HL-60 cells) | selectivity for hCD33 over hCD22 and mSn (hCD33 [1]; glycan microarray) | binding (affinity/avidity, selectivity) to hCD33 on glycan array (hCD33 [1]; printed at 100 μM or 3 μM, hCD33-Fc pre-complexed with R-PE anti-human IgG) | increase in affinity relative to the native sialoside (hCD33 [2]; hCD33) [fold] | pIC50 (hCD33 [2]; prevention of binding of fluorescently labelled hCD33 to ligand-coated beads) | rIP value (hCD33 [2]; relative inhibitory potency compared to the native sialoside (rIP=1)) | binding to Siglec-8 (Siglec-8)
Cc1cc(C(=O)NC[C@@H](O)[C@@H](O)C2O[C@@](OCC3O[C@@H](O[C@@H]4C(CO)O[C@@H](OCCN)C(O)[C@H]4O)C(O)[C@@H](O)[C@H]3O)(C(=O)O)C[C@@H](O)[C@H]2NC(=O)Cn2cc(C3CCCCC3)nn2)cc(C)c1O (stereo partly shown) [Compound 22] | bound | showed increased selectivity for hCD33 over hCD22 and mSn | exhibited superior properties compared to the monosubstituted compounds; also recorded: exhibited higher avidity than both parent compounds | 350 | 4.96 | 351 | 
Neu5Acα2-3[6-SO4]Galβ1-4[Fucα1-3]GlcNAc [6′-sulfo-sLe^X] |  |  |  |  |  |  | binds to
